Key:
[1] = tested on: CUG-RNA foci in DM1 myoblasts; assay: FISH analysis of nuclear CUG-RNA foci in DM1 myoblasts; format: cell-based, human; conditions: 4 days
Description: DM1 myoblasts were then treated with 10 μM of either RCN-001 or the vehicle (DMSO) for 4 days and then examined by FISH using a Cy3 (CAG)10 probe.
Normal myoblasts were purchased from Lonza, Inc. DM1 myoblasts were a gift from Dr. Charles Thornton. Normal and DM1 myoblasts were maintained in SkGM Medium (Lonza, Inc.) containing 10% Fetal Bovine Serum and 1% Penicillin-Streptomycin, 5% CO2 at 37° C. Human Embryonic Kidney 293 Cells (293HEK) were maintained in Dulbecco's Modification of Eagle's Medium (DMEM) from Cellgro supplemented with 10% Fetal Bovine Serum and 1% Penicillin-Streptomycin, 5% CO2 at 37° C.
(§1) CUG-RNA foci were detected by performing FISH on untreated DM1 myoblasts and DM1 myoblasts following treatment. For FISH analysis, DM1 myoblasts were plated on a 24-well clear bottom polystyrene plate with circular glass coverslips followed by treatment. Prior to FISH analysis, cells were fixed using 4% paraformaldehyde in 1×PBS for 20 min at room temperature. FISH analysis was performed using a Cy3 conjugated (CAG)10 oligonucleotide probe (Integrated DNA Technologies, Inc.) as described by Taneja et al, 1995 and Dansithong et al, 2005. CUG-RNA foci were observed as a red signal using fluorescence microscopy. Immunofluorescence was performed as described by Dansithong et al, 2008. Endogenous SHARP was detected using SHARP polyclonal antibodies from Bethyl at a dilution of 1:1000. The secondary antibodies conjugated with FITC (Invitrogen) were used at a 1:2000 dilution. Chloride channel 1 (Clcn1 a.k.a. CIC-1) was detected using CIC-1 polyclonal antibodies from Santa Cruz. The secondary antibodies conjugated with Alexa Flour 488 (Invitrogen) were used at a 1:2000 dilution. FISH analysis in mouse muscle section was carried out as described in Mancodi et al, 2000 (9).

DM1 myoblasts [2] = assay: Viability of DM1 myoblasts by counting surviving cells; format: cell-based, human; conditions: Table 1, 10 μM, 4 days, surviving cells vs vehicle control
[3] = tested on: CUG-RNA foci in DM1 myoblasts; assay: FISH analysis of nuclear CUG-RNA foci in DM1 myoblasts; format: cell-based, human; conditions: 2 μM, 4 days (not shown)
[4] = tested on: MBNL1 and MBNL2 RNA splicing in DM1 myoblasts; assay: Splicing assay (RT-PCR) for RNAs from DM1 myoblasts; format: cell-based, human
Description: A. Total RNA was isolated from normal (SKMC) myoblasts, untreated DM1 myoblasts and DM1 myoblasts treated with 50 μM RCN-001 or 50 μM Pentamidine for 17 hours and subjected to RT-PCR analysis using the indicated primers sets for MBNL1 and MBNL2 RNAs. GAPDH RNA was amplified in parallel as an internal control. The results of one of three experiments are shown. B. The relative levels of exon inclusion was measured by densitometry and tabulated as mean % exon inclusion +/− standard deviation.
Treatment of DM1 myoblasts with RCN-001 is also sufficient to rescue abnormal RNA splicing. Two RNAs were selected that show abnormal splicing in DM1 myoblasts: MBNL1 and MBNL2. DM1 myoblast were treated with 50 μM RCN-001 for 17 hours after which RNA was isolated and splice variants were analyzed as previously described (20-22).
Splicing assays for RNAs isolated from human myoblasts. DM1 patient myoblasts was treated with 50 μM of RCN-001 or Pentamidine for 17 h as described by Warf et al, 2009. Total RNA was isolated using the RNAeasy mini kit (Qiagen Inc., USA) following manufacture's protocol. cDNA was synthesized using 5 μg of total RNA using First-Strand cDNA synthesis kit (GE Healthcare). PCR amplification was carried out using 150 ng of cDNA for 35 cycles for each target RNA. The primers used for PCR amplification are as follows—
The relative band intensities were measured using densitometry analyses and the percent of exon inclusion was calculated as [exon inclusion/(exon inclusion+exon exclusion)]×100.

Clcn1 = assay: Anti-Clcn1 staining of gastrocnemius muscle sections of HSALR mice; format: in vivo; conditions: 14 days treatment
Excerpt: (§2) For all animals the recording electrode was inserted into the test muscle 20 times. The number of myotonic runs ≧1 second in the gastrocnemius muscle of individual HSA^LR mice treated with either the saline control or RCN-001 are shown.
(§3) Importantly, RCN-001 reduces the number of myotonic runs of ≧1 second (p<0.05) (FIG. 5), total time of myotonic runs ≧1 sec (4.04 s±2.9 vehicle; 0.99 s±1.4 RCN-001; p<0.05) and length of the longest run (1.96 s±0.97 vehicle; 0.73 s±0.71 RCN-001; p<0.05) in the gastrocnemius muscle of HSA^LR mice. […] Methods are detailed in the legend of FIG. 5.
as §1, with “Immunofluorescence was performed as described by Dansithong et al, 2008.” left out, “The secondary antibodies conjugated with FITC (Invitrogen) were used at a 1:2000 dilution.” left out, “The secondary antibodies conjugated with Alexa Flour 488 (Invitrogen) were used at a 1:2000 dilution. FISH analysis in mouse muscle section was carried out as described in Mancodi et al, 2000 (9).” left out

DM1 myoblasts [5] = assay: Toxicity by shape and size of the nuclei of DM1 myoblasts; format: cell-based, human; conditions: Table 1, 10 μM, 4 days
SHARP = assay: Nuclear SHARP levels in treated HSALR mice; format: in vivo; conditions: 40 mg/kg i.p. each day for 7 days (not shown)
Description: Furthermore, CUG foci, abnormal RNA splicing, myotonia and reduced Clcn1 protein levels are reversed in HSA^LR mice treated with RCN-001: Age and gender matched HSA^LR mice were treated with either vehicle or 40/mgs/kg of RCN-001 injected i.p. each day for 7 days. After treatment CUG foci were examined and RNA isolated from skeletal muscle was subjected to RT-PCR analysis to examine the efficacy of RCN-001 in correcting the splice defects of Clcn1, lbd3 and Serca-1 RNAs, which are abnormally spliced in DM1 (20).
as §1, with “Immunofluorescence was performed as described by Dansithong et al, 2008.” left out, “The secondary antibodies conjugated with FITC (Invitrogen) were used at a 1:2000 dilution.” left out, “The secondary antibodies conjugated with Alexa Flour 488 (Invitrogen) were used at a 1:2000 dilution. FISH analysis in mouse muscle section was carried out as described in Mancodi et al, 2000 (9).” left out

HSALR mice = assay: Myotonic runs recorded in muscle of treated HSALR mice; format: in vivo; conditions: gastrocnemius muscle, 40 mg/kg IP once a day for 14 days, p<0.05 vs vehicle
Excerpt: as §2, §3
Treatment in HSALR mice. The HSALR transgenic mice expressing (CTG)250 in the 3′UTR of the human skeletal actin mRNA as described in Mankodi et al, 2000 were utilized for this study (a generous gift from Dr. Charles Thornton). Treatment in mice was done by intraperitoneal injection using 40 mg/kg once a day for 7 or 14 days of RCN-001 or vehicle alone. Total RNA was isolated from skeletal muscle of treated HSALR mice using Trizole (Invitrogen, USA) following the manufacture's protocol. cDNA synthesis and PCR was performed as described in Dansithong et al, 2008. PCR amplification was carried out with the following primers—

In the case of `CCCCCCc1cc2cc(-c3nnc(-c4cccc(OC)c4)o3)c(=O)oc2cc1O` [RCN-001], the “decrease in cells containing 3 or more foci” value ([1]; 10 μM, vs vehicle (DMSO)) is reported as ~5 fold, the “increase in cells containing no foci” value ([1]; 10 μM, vs vehicle (DMSO)) is reported as ~10 fold and the “# of Foci (percentage) 0-1: Percentage of cells with no or 1 nuclear foci” value ([1]; Table 1, 10 μM, FISH) is reported as 48 percentage. For the same molecule, the “# of Foci (percentage) >2: Percentage of cells with 2 or greater nuclear foci” value ([1]; Table 1, 10 μM, FISH) was 52 percentage, the “Toxicity: Viable” value (DM1 myoblasts [2]) was “++ (30-40% cell survival)” and the “decrease in cells containing 3 or more foci” value [3] was 2 fold. For the same molecule, the “increase in cells containing no foci” value [3] was 5 fold, the “rescue of abnormal splicing of MBNL1 and MBNL2” value ([4]; 50 μM, 17 hours, RT-PCR) was “significantly rescues abnormal splicing of MBNL1 and MBNL2” and the “rescue of aberrant splicing of MBNL1, MBNL2, and IR in DM1 myoblasts” value ([4]; FIG. 6B, semi-quantitative RT-PCR) was “rescues aberrant splicing”. The “chloride channel (Clcn1) levels” value (Clcn1) was “re-establish normal chloride channel levels”, the “Toxicity: Toxic” value (DM1 myoblasts [5]) was “++++ (60% alterations in nuclei shape and size)” and the “nuclear SHARP levels” value (SHARP) was “allowed nuclear SHARP levels to be re-established”. The “number of myotonic runs of ≧1 second” value (HSALR mice) was “reduces”.

Reference: patent US20140121236A1, “Compositions and Methods for Treating Myotonic Dystrophy Type 1” (UNIVERSITY OF SOUTHERN CALIFORNIA, priority 2012, published 2014)
